What was measured:
[1] = system: Small Brown Planthopper (Laodelphax Striatellus); assay: Test of insecticidal efficacy against small brown planthopper (Test Example 2); assay type: in vivo; conditions: 500 ppm, rice plants soaked 30 seconds, third-instar larvae, eight days after inoculation; criteria same as in Test Example 1
Text: Test of Insecticidal Efficacy Against Small Brown Planthopper (Laodelphax Striatellus)

[2] = system: Green Peach Aphid (Myzus Persicae); assay: Test of preventive value against green peach aphid (Test Example 1); assay type: in vivo; conditions: 500 ppm, sprayed over stems and leaves of potted Chinese cabbages, sixth day after spraying

O=C1Nc2ccccc2Oc2cn(-c3cccnc3)nc21 [Compound No. 1-1, 2-(pyridine-3-yl)-2H-benzo [b]pyrazolo [3,4-f][1,4]oxazepine-10 (9H)-one]
Corrected insect mortality, judgment [1]: A to D | Preventive value, judgment [2]: A to D

CN1C(=O)c2nn(-c3ccc[n+]([O-])c3)cc2Oc2ccccc21 [9-1]
Corrected insect mortality, judgment [1]: A to D | Preventive value, judgment [2]: A to D

COc1ccc2c(c1)Oc1cn(-c3cccnc3)nc1C(=O)N2CC#N [1-42]
Corrected insect mortality, judgment [1]: A to D | Preventive value, judgment [2]: A to D

COC(CN1C(=O)c2nn(-c3cccnc3)cc2Oc2ccc(F)cc21)OC [8-42]
Corrected insect mortality, judgment [1]: A to D | Preventive value, judgment [2]: A to D

CN1C(=O)c2nn(-c3cccnc3)cc2Oc2ccc(C(F)(F)F)cc21 [1-38]
Corrected insect mortality, judgment [1]: A to D | Preventive value, judgment [2]: A to D

CCCCCCCCN1C(=O)c2nn(-c3cccnc3)cc2Oc2ccccc21 [1-53]
Corrected insect mortality, judgment [1]: A to D | Preventive value, judgment [2]: A to D

O=C1c2nn(-c3cccnc3)cc2Oc2ccccc2N1CCc1ccccc1 [1-62]
Corrected insect mortality, judgment [1]: A to D | Preventive value, judgment [2]: A to D

CN1C(=O)c2nn(-c3cncnc3)cc2Oc2ccccc21 [1-79]
Corrected insect mortality, judgment [1]: A to D | Preventive value, judgment [2]: A to D

CN1C(=O)c2nn(-c3cccnc3)cc2Oc2cc(F)ccc21 [Compound No. 1-11, 6-fluoro-9-methyl-2-(pyridine-3-yl)-2H-benzo [b]pyrazolo [3,4-f][1,4]oxazepine-10 (9H)-one]
Corrected insect mortality, judgment [1]: A to D | Preventive value, judgment [2]: A to D

N#Cc1ccc2c(c1)NC(=O)c1nn(-c3cccnc3)cc1O2 [1-50]
Corrected insect mortality, judgment [1]: A to D | Preventive value, judgment [2]: A to D

CC(C#N)N1C(=O)c2nn(-c3cccnc3)cc2Oc2ccccc21 (stereo not shown) [1-77]
Corrected insect mortality, judgment [1]: A to D | Preventive value, judgment [2]: A to D

O=C1c2nn(-c3cccnc3)cc2Oc2ccccc2N1CCN1CCOCC1 [1-71]
Corrected insect mortality, judgment [1]: A to D | Preventive value, judgment [2]: A to D

CCOCN1C(=O)c2nn(-c3cccnc3)cc2Oc2ccc(F)cc21 [8-46]
Corrected insect mortality, judgment [1]: A to D | Preventive value, judgment [2]: A to D

C#CCN1C(=O)c2nn(-c3cccnc3)cc2Oc2cc(F)ccc21 [1-12]
Corrected insect mortality, judgment [1]: A to D | Preventive value, judgment [2]: A to D

Source: patent US10100061B2, “Oxazepine compound and agricultural/horticultural insecticide containing said compound as active ingredient, and method for using the same” (NIHON NOHYAKU CO., LTD., priority 2014, dated 2018)
